Test results taken from patent publication US9890185B2, “Urea derivatives useful as kinase inhibitors” (Respivert Limited, priority 2013, dated 2018).

Experiments:
[1] = biological target: p38 MAPKα isoform (MAPK14) (Homo sapiens (Human), UniProt Q16539); assay: p38 MAPKα enzyme inhibition (FRET, Z-LYTE, Method 2); assay type: biochemical
Protocol: (§1) The enzyme inhibitory activities of compounds disclosed herein are determined by FRET using synthetic peptides labelled with both donor and acceptor fluorophores (Z-LYTE, Invitrogen Ltd., Paisley, UK).
The following two assay variants can be used for determination of p38 MAPKα inhibition.
The inhibitory activities of test compounds against the p38 MAPKα isoform (MAPK14: Invitrogen), are evaluated indirectly by determining the level of activation/phosphorylation of the down-stream molecule, MAPKAP-K2. The p38 MAPKα protein (80 ng/mL, 2.5 μL) is mixed with the test compound (2.5 μL of either 4 μg/mL, 0.4 μg/mL, 0.04 μg/mL or 0.004 μg/mL) for 2 hr at RT. […] The mixture is incubated for 1 hr at RT. Development reagent (protease, 5 μL) is added for 1 hr prior to detection in a fluorescence microplate reader (Varioskan® Flash, ThermoFisher Scientific).
This method follows the same steps as Method 1 above, but utilises a higher concentration of the p38 MAPKα protein (2.5 μL of 200 ng/mL protein instead of 2.5 μL of 80 ng/mL protein) for mixing with the test compound.
(§2) In all cases, the site-specific protease cleaves non-phosphorylated peptide only and eliminates the FRET signal. Phosphorylation levels of each reaction are calculated using the ratio of coumarin emission (donor) over fluorescein emission (acceptor), for which high ratios indicate high phosphorylation and low ratios indicate low phosphorylation levels. The percentage inhibition of each reaction is calculated relative to non-inhibited control and the 50% inhibitory concentration (IC50 value) is then calculated from the concentration-response curve.

c-Src = c-Src (Homo sapiens (Human), UniProt P12931); assay: c-Src enzyme inhibition (FRET, Z-LYTE); assay type: biochemical
Protocol: as §1
(§3) The inhibitory activities of compounds of the invention against c-Src and Syk enzymes (Invitrogen), are evaluated in a similar fashion to that described hereinabove. The relevant enzyme (3000 ng/mL or 2000 ng/mL respectively, 2.5 μL) is incubated with the test compound (either 4 μg/mL, 0.4 μg/mL, 0.04 μg/mL, or 0.004 μg/mL, 2.5 μL each) for 2 hr at RT. The FRET peptides (8 μM, 2.5 μL), and appropriate ATP solutions (2.5 μL, 800 μM for c-Src, and 60 μM ATP for Syk) are then added to the enzymes/compound mixtures and incubated for 1 hr. Development reagent (protease, 5 μL) is added for 1 hr prior to detection in a fluorescence microplate reader (Varioskan® Flash, ThermoFisher Scientific).
as §2

Syk = Syk (Homo sapiens (Human), UniProt P43405); assay: Syk enzyme inhibition (FRET, Z-LYTE); assay type: biochemical
Protocol: as §1, §3, §2

GSK 3α = GSK 3α (Homo sapiens (Human), UniProt P49840); assay: GSK 3α enzyme inhibition (FRET, Z-LYTE, Method 2); assay type: biochemical; conditions: read-out: IC50 Values for Enzyme Inhibition, GSK3α
Method in brief: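 Phosphorylation of a dual-labelled synthetic peptide by human GSK3α is read as a coumarin/fluorescein ratio after protease development. Compound stocks run 4 to 0.004 μg/mL, and ATP stock is 40 μM.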

PBMCs [2] = assay: LPS-induced IL-8 release in PBMC cells (assay b); assay type: cell-based, human; conditions: Homo sapiens, PBMC; LPS-stimulated PBMCs; read-out: IC50 Values for Inhibition of Cytokine Release, PBMCs IL-8
Method in brief: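 Human PBMCs from healthy donors, isolated by density gradient, were pretreated with compound for 2 h and then stimulated with 1 ng/mL LPS (E. coli 0111:B4) for 24 h at 37° C, 5% CO2. Supernatant IL-8 and TNFα were measured by sandwich ELISA, and IC50 was taken from the dose-response curve.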

d-U937 cells = assay: Accumulation of β catenin in d-U937 cells (assay m); assay type: cell-based, human; conditions: percentage relative to Reference Compound at 1 μg/mL
Protocol: U937 cells, a human monocytic cell line, are differentiated into macrophage-type cells by incubation with PMA; (100 ng/mL) for between 48 to 72 hr. The cells are then incubated with either final concentrations of test compound or vehicle for 18 hr. The induction of β-catenin by the test compounds is stopped by replacing the media with 4% formaldehyde solution. Endogenous peroxide activity is neutralised by incubating with quenching buffer (100 μL, 0.1% sodium azide, 1% H2O2 in PBS with 0.05% Tween-20) for 20 min. The cells are washed with washing buffer (200 μL; PBS containing 0.05% Tween-20) and incubated with blocking solution (200 μL; 5% milk in PBS) for 1 hr, re-washed with washing buffer (200 μL) and then incubated overnight with anti-β-catenin antibody solution (50 μL) in 1% BSA/PBS (BD, Oxford, UK).
After washing with washing buffer (3×200 μL; PBS containing 0.05% Tween-20), cells are incubated with an HRP-conjugated secondary antibody solution (100 μL) in 1% BSA/PBS (Dako, Cambridge, UK) and the resultant signal is determined colourimetrically (OD: 450 nm with a reference wavelength of 655 nm) using TMB substrate (50 μL; R&D Systems, Abingdon, UK). This reaction is stopped by addition of 1N H2SO4 solution (50 μL). Cells are then washed with washing buffer and 2% crystal violet solution (50 μL) is applied for 30 min. After washing with washing buffer (3×200 μL), 1% SDS (100 μL) is added to each well and the plates are shaken lightly for 1 hr prior to measuring the absorbance at 595 nm (Varioskan® Flash, Thermo-Fisher Scientific).
The measured OD450-655 readings are corrected for cell number by dividing the OD450-655 by the OD595 readings.

PBMCs [3] = assay: Cell mitosis assay in PBMCs (assay g); assay type: cell-based; conditions: Homo sapiens, PBMC, test compound 5 μg/mL
Protocol: Peripheral blood mononucleocytes (PBMCs) from healthy subjects are separated from whole blood (Quintiles, London, UK) using a density gradient (Histopaque®-1077, Sigma-Aldrich, Poole, UK). The PBMCs (3 million cells per sample) are subsequently treated with 2% PHA (phytohaemagglutinin, Sigma-Aldrich, Poole, UK) for 48 hr, followed by a 20 hr exposure to varying concentrations of test compounds. At 2 hr before collection, PBMCs are treated with demecolcine (0.1 μg/mL; Invitrogen, Paisley, UK) to arrest cells in metaphase. To observe mitotic cells, PBMCs are permeabilised and fixed by adding Intraprep (50 μL; Beckman Coulter, France), and stained with anti-phospho-histone 3 (0.26 ng/L; #9701; Cell Signalling, Danvers, Mass.) and propidium iodide (1 mg/mL; Sigma-Aldrich, Poole, UK) as previously described (Muehlbauer P. A. and Schuler M. J., Mutation Research, 2003, 537:117-130). Fluorescence is observed using an ATTUNE flow cytometer (Invitrogen, Paisley, UK), gating for lymphocytes. The percentage inhibition of mitosis is calculated for each treatment relative to vehicle (0.5% DMSO) treatment.

Chain of c-Src (P12931 whole entry, looked up): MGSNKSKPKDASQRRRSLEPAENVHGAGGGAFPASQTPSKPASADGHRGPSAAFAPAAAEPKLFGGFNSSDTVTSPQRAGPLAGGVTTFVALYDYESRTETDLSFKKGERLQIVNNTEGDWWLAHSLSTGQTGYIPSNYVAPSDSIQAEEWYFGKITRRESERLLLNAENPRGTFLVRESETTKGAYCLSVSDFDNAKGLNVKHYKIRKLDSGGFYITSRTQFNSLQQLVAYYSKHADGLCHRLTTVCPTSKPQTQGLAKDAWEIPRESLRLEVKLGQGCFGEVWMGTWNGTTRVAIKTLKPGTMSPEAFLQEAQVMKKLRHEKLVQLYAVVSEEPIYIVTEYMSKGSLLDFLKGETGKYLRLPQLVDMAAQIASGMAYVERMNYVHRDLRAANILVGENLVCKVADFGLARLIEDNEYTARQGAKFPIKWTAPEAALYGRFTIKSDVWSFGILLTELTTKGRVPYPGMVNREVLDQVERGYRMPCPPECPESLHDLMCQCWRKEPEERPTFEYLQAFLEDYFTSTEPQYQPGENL
Chain of GSK 3α (P49840 whole entry): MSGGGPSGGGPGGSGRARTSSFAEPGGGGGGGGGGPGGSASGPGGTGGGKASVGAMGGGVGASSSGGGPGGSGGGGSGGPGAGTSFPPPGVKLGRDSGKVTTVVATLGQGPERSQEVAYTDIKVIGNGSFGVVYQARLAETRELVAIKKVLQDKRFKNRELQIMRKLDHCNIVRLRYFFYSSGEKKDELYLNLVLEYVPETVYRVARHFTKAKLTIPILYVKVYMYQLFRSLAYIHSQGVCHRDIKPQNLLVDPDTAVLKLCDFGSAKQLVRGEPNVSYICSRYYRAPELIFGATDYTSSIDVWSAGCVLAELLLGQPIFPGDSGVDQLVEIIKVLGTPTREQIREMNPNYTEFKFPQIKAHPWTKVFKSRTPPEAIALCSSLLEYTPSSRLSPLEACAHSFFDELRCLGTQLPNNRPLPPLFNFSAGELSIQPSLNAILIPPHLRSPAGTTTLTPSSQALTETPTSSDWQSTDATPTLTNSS
Chain of p38 MAPKα isoform (MAPK14) (Q16539 whole entry, canonical isoform): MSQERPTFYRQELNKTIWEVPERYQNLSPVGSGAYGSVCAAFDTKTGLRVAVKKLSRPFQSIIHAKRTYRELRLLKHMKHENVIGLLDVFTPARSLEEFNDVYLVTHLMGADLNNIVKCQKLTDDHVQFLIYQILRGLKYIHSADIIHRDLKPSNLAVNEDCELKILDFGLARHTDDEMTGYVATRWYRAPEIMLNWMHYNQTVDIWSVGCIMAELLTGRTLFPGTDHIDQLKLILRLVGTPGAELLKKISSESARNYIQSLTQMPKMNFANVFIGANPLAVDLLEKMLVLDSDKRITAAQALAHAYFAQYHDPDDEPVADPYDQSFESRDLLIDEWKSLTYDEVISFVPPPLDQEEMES

SMILES	IC50 [1] [nM]	IC50 (c-Src) [nM]	IC50 (Syk) [nM]	IC50 (GSK 3α) [nM]	IC50 (PBMCs [2]) [nM]	% β-catenin induction (d-U937 cells; test compound 1 μg/mL) [%]	% β-catenin induction (d-U937 cells; test compound 5 μg/mL) [%]	% β-catenin induction (d-U937 cells; test compound 10 μg/mL) [%]	inhibition at 5 µg/mL (PBMCs [3]) [%]
COc1cccc(Nc2cc(Oc3ccc(NC(=O)Nc4cc(C(C)(C)C)cc(P(C)(C)=O)c4OC)c4ccccc34)ccn2)c1 [15(af), 1-(5-(tert-butyl)-3-(dimethylphosphoryl)-2-methoxyphenyl)-3-(4-((2-((3-methoxy-phenyl)amino)pyridin-4-yl)oxy)naphthalen-1-yl)urea]	226	77	278	9400	2.7	−2.0	13.0	32.0	–
COc1c(NC(=O)Nc2ccc(Oc3ccnc(N(C)C)n3)c3ccccc23)cc(C(C)(C)C)cc1P(C)(C)=O [15(ak), 1-(5-(tert-butyl)-3-(dimethylphosphoryl)-2-methoxyphenyl)-3-(4-((2-(dimethylamino)-pyrimidin-4-yl)oxy)naphthalen-1-yl)urea]	38	> 1780	> 1780	> 17800	26	–	–	–	–
COc1c(NC(=O)Nc2ccc(Oc3ccnc(Nc4ccccc4)n3)c3ccccc23)cc(C(C)(C)C)cc1P(C)(C)=O [15(b), 1-(5-(tert-butyl)-3-(dimethylphosphoryl)-2-methoxyphenyl)-3-(4-((2-(phenylamino)-pyrimidin-4-yl)oxy)naphthalen-1-yl)urea]	59	14	273	785	4.5	–	–	–	–
COc1c(NC(=O)Nc2ccc(Oc3ccnc(Nc4cc(C)c5[nH]ncc5c4)n3)c3ccccc23)cc(C(C)(C)C)cc1P(C)(C)=O [15(j), 1-(5-(tert-butyl)-3-(dimethylphosphoryl)-2-methoxyphenyl)-3-(4-((2-((7-methyl-1H-indazol-5-yl)amino)pyrimidin-4-yl)oxy)naphthalen-1-yl)urea]	173	19	16	855	3.2	–	–	–	–
COc1c(CC(N)=O)cc(C(C)(C)C)cc1NC(=O)Nc1ccc(Oc2ccnc(Nc3cc(OCCN4CCOCC4)cc(C(F)(F)F)c3)c2)c2ccccc12 [38(w), 2-(5-(tert-Butyl)-2-methoxy-3-(3-(4-((2-((3-(2-morpholinoethoxy)-5-(trifluoromethyl)-phenyl)amino)pyridin-4-yl)oxy)naphthalen-1-yl)ureido)phenyl)acetamide]	–	–	–	> 12700	4	–	–	–	23.9
COc1c(NC(=O)Nc2ccc(Oc3ccnc(Nc4cc(OCCN5CCOCC5)cc(C(F)(F)F)c4)c3)c3ccccc23)cc(C(C)(C)C)cc1[S+](C)[O-] (centres unmarked) [38(x), 1-(5-(tert-Butyl)-2-methoxy-3-(methylsulfinyl)phenyl)-3-(4-((2-((3-(2-morpholinoethoxy)-5-(trifluoromethyl)phenyl)amino)pyridin-4-yl)oxy)naphthalen-1-yl)urea]	–	–	–	> 12600	4.1	–	–	–	35
COc1cc(Nc2cc(Oc3ccc(NC(=O)Nc4cc(C(C)(C)C)cc(P(C)(C)=O)c4OC)c4ccccc34)ccn2)cc(S(=O)(=O)N(C)CCN2CCN(C)CC2)c1 [79(m), 3-((4-((4-(3-(5-(tert-Butyl)-3-(dimethylphosphoryl)-2-methoxyphenyl)ureido)naphthalen-1-yl)oxy)pyridin-2-yl)amino)-5-methoxy-N-methyl-N-(2-(4-methylpiperazin-1-yl)ethyl)benzene sulfonamide]	6	25	7	–	1.8	–	–	–	–
COc1cc(Nc2cc(Oc3ccc(NC(=O)Nc4cc(C(C)(C)C)cc(P(C)(C)=O)c4OC)c4ccccc34)ccn2)cc(OC)c1 [Example 27, 1-(5-(tert-Butyl)-3-(dimethylphosphoryl)-2-methoxyphenyl)-3-(4-((2-((3,5-dimethoxyphenyl)-amino)pyridin-4-yl)oxy)naphthalen-1-yl)urea]	230	44	137	11300	1	5.7	13.0	13.3	52
COCCOCCOCCOc1cc(Nc2cc(Oc3ccc(NC(=O)Nc4cc(C(C)(C)C)cc(CP(C)(C)=O)c4OC)c4ccccc34)ccn2)cc(OC)c1 [Example 29, 1-(5-(tert-Butyl)-3-((dimethylphosphoryl)methyl)-2-methoxyphenyl)-3-(4-((2-((3-methoxy-5-(2-(2-(2-methoxyethoxy)ethoxy)ethoxy)phenyl)amino)pyridin-4-yl)oxy)naphthalen-1-yl)urea]	31	24	123	5470	0.8	6.5	9.0	45.0	49.4
COc1c(NC(=O)Nc2ccc(Oc3ccnc(NCc4ccccn4)n3)c3ccccc23)cc(C(C)(C)C)cc1P(C)(C)=O [Example 32, 1-(5-(tert-Butyl)-3-(dimethylphosphoryl)-2-methoxyphenyl)-3-(4-((2-((pyridin-2-ylmethyl)-amino)pyrimidin-4-yl)oxy)naphthalen-1-yl)urea]	6	1110	1600	988	1.8	–	–	–	–
